Test results taken from ChEMBL document CHEMBL1811859, “Second-generation sulfonamide inhibitors of D-glutamic acid-adding enzyme: activity optimisation with conformationally rigid analogues of D-glutamic acid” (Eur J Med Chem, 2011).

Assays:
[1] = Inhibition of Escherichia coli MurD ligase
Micrococcus luteus = assay: Antimicrobial activity against Micrococcus luteus ATCC 9314 by broth dilution method; format: functional
Klebsiella pneumoniae = assay: Antimicrobial activity against Klebsiella pneumoniae ATCC 13883 by broth dilution method; format: functional
[2] = tested on: Staphylococcus epidermidis; assay: Antimicrobial activity against Staphylococcus epidermidis ATCC 12228 by broth dilution method; format: functional
Streptococcus pneumoniae [3] = assay: Antimicrobial activity against Streptococcus pneumoniae D39 by broth dilution method; format: functional
Listeria monocytogenes = assay: Antimicrobial activity against Listeria monocytogenes ATCC 14780 by broth dilution method; format: functional
Staphylococcus aureus [4] = assay: Antimicrobial activity against methicillin-resistant Staphylococcus aureus ATCC 43300 by broth dilution method; format: functional
Enterococcus faecium = assay: Antimicrobial activity against Enterococcus faecium ATCC 19434 by broth dilution method; format: functional
Staphylococcus aureus [5] = assay: Antimicrobial activity against Staphylococcus aureus ATCC 25923 by broth dilution method; format: functional
Streptococcus pneumoniae [6] = assay: Antimicrobial activity against Streptococcus pneumoniae ATCC 33400 by broth dilution method; format: functional
Enterococcus faecalis [7] = assay: Antimicrobial activity against Enterococcus faecalis ATCC 19433 by broth dilution method; format: functional
Pseudomonas aeruginosa = assay: Antimicrobial activity against Pseudomonas aeruginosa ATCC 27853 by broth dilution method; format: functional
Escherichia coli [8] = assay: Antimicrobial activity against Escherichia coli ATCC 8739 by broth dilution method; format: functional
[9] = Inhibition of Escherichia coli MurD ligase assessed as addition of D-[3H]glu to UDP-N-acetyl-muramoyl-L-alanine after 30 mins
Escherichia coli [10] = assay: Inhibition of Escherichia coli MurD ligase assessed as residual activity at 500 uM after 30 mins
Bacillus subtilis = assay: Antimicrobial activity against Bacillus subtilis ATCC 6633 by broth dilution method; format: functional
Streptococcus pneumoniae [11] = assay: Antimicrobial activity against Streptococcus pneumoniae ATCC 49619 by broth dilution method; format: functional
Enterococcus faecalis [12] = assay: Antimicrobial activity against Enterococcus faecalis ATCC 29212 by broth dilution method; format: functional
Proteus mirabilis = assay: Antimicrobial activity against Proteus mirabilis ATCC 29936 by broth dilution method; format: functional
Listeria innocua = assay: Antimicrobial activity against Listeria innocua ATCC 33090 by broth dilution method; format: functional
Staphylococcus aureus [13] = assay: Antimicrobial activity against methicillin-resistant Staphylococcus aureus PL1 by broth dilution method; format: functional
Enterococcus hirae = assay: Antimicrobial activity against Enterococcus hirae ATCC 9790 by broth dilution method; format: functional
Citrobacter freundii = assay: Antimicrobial activity against Citrobacter freundii ATCC 8090 by broth dilution method; format: functional
[14] = Inhibition of Escherichia coli MurD ligase by fluorimetric assay
[15] = Inhibition of Escherichia coli MurD ligase assessed as addition of D-[3H]glu to UDP-N-acetyl-muramoyl-L-alanine
[16] = Inhibition of Escherichia coli MurD ligase after 10 mins using malachite green reagent by colorimetry

SMILES: CCCCOc1ccc2cc(S(=O)(=O)N[C@@H](CCC(=O)O)C(=O)O)ccc2c1
- IC50 [1]: 710 µM

SMILES: N#Cc1ccc(COc2ccc3cc(S(=O)(=O)Nc4ccc(O)cc4C(=O)O)ccc3c2)c(F)c1
- MIC (Micrococcus luteus): > 512 µg/mL
- MIC (Klebsiella pneumoniae): > 512 µg/mL
- MIC [2]: > 512 µg/mL
- MIC (Streptococcus pneumoniae [3]): > 512 µg/mL
- MIC (Listeria monocytogenes): > 512 µg/mL
- MIC (Staphylococcus aureus [4]): > 512 µg/mL
- MIC (Enterococcus faecium): > 512 µg/mL
- MIC (Staphylococcus aureus [5]): > 512 µg/mL
- MIC (Streptococcus pneumoniae [6]): > 512 µg/mL
- MIC (Enterococcus faecalis [7]): > 512 µg/mL
- MIC (Pseudomonas aeruginosa): > 512 µg/mL
- MIC (Escherichia coli [8]): > 512 µg/mL
- IC50 [9]: 46 µM
- Ki [9]: 32 µM
- Activity (Escherichia coli [10]): 3%
- MIC (Bacillus subtilis): > 512 µg/mL
- MIC (Streptococcus pneumoniae [11]): > 512 µg/mL
- MIC (Enterococcus faecalis [12]): > 512 µg/mL
- MIC (Proteus mirabilis): > 512 µg/mL
- MIC (Listeria innocua): > 512 µg/mL
- MIC (Staphylococcus aureus [13]): > 512 µg/mL
- MIC (Enterococcus hirae): > 512 µg/mL
- MIC (Citrobacter freundii): > 512 µg/mL

SMILES: Cc1ccc(C(=O)O)cc1NC(=O)CSc1nnc(N)s1
- IC50 [14]: 105 µM

SMILES: CC(=O)N[C@H]1C(OP(=O)(O)O)O[C@H](CO)[C@@H](O)[C@@H]1O[C@H](C)C(=O)N[C@@H](C)P(=O)(O)CC(CCC(=O)O)C(=O)O (stereo not given in full)
- IC50 [15]: 0.02 µM

SMILES: C[C@@H]1NC(=O)[C@H](CO)NC(=O)CCCCCC[C@H](C(=O)O)CC1=O
- IC50 [16]: 0.7 µM

SMILES: O=C(N/N=C/c1ccc(O)c(O)c1O)c1n[nH]c2ccccc12
- IC50 [1]: 324 µM

SMILES: CCCCOc1ccc2cc(S(=O)(=O)Nc3cc(C(=O)O)cc(C(=O)O)c3)ccc2c1
- MIC (Micrococcus luteus): > 512 µg/mL
- MIC (Klebsiella pneumoniae): > 512 µg/mL
- MIC [2]: > 512 µg/mL
- MIC (Streptococcus pneumoniae [3]): > 512 µg/mL
- MIC (Listeria monocytogenes): > 512 µg/mL
- MIC (Staphylococcus aureus [4]): > 512 µg/mL
- MIC (Enterococcus faecium): > 512 µg/mL
- MIC (Staphylococcus aureus [5]): > 512 µg/mL
- MIC (Streptococcus pneumoniae [6]): > 512 µg/mL
- MIC (Enterococcus faecalis [7]): > 512 µg/mL
- MIC (Pseudomonas aeruginosa): > 512 µg/mL
- MIC (Escherichia coli [8]): > 512 µg/mL
- Activity (Escherichia coli [10]): 70%
- MIC (Bacillus subtilis): > 512 µg/mL
- MIC (Streptococcus pneumoniae [11]): > 512 µg/mL
- MIC (Enterococcus faecalis [12]): > 512 µg/mL
- MIC (Proteus mirabilis): > 512 µg/mL
- MIC (Listeria innocua): > 512 µg/mL
- MIC (Staphylococcus aureus [13]): > 512 µg/mL
- MIC (Enterococcus hirae): > 512 µg/mL
- MIC (Citrobacter freundii): > 512 µg/mL

SMILES: CCCCOc1ccc2cc(S(=O)(=O)Nc3cc(C(=O)O)ccc3C(=O)O)ccc2c1
- MIC (Micrococcus luteus): > 512 µg/mL
- MIC (Klebsiella pneumoniae): > 512 µg/mL
- MIC [2]: > 512 µg/mL
- MIC (Streptococcus pneumoniae [3]): > 512 µg/mL
- MIC (Listeria monocytogenes): > 512 µg/mL
- MIC (Staphylococcus aureus [4]): > 512 µg/mL
- MIC (Enterococcus faecium): > 512 µg/mL
- MIC (Staphylococcus aureus [5]): > 512 µg/mL
- MIC (Streptococcus pneumoniae [6]): > 512 µg/mL
- MIC (Enterococcus faecalis [7]): > 512 µg/mL
- MIC (Pseudomonas aeruginosa): > 512 µg/mL
- MIC (Escherichia coli [8]): > 512 µg/mL
- Activity (Escherichia coli [10]): 78%
- MIC (Bacillus subtilis): > 512 µg/mL
- MIC (Streptococcus pneumoniae [11]): > 512 µg/mL
- MIC (Enterococcus faecalis [12]): > 512 µg/mL
- MIC (Proteus mirabilis): > 512 µg/mL
- MIC (Listeria innocua): > 512 µg/mL
- MIC (Staphylococcus aureus [13]): > 512 µg/mL
- MIC (Enterococcus hirae): > 512 µg/mL
- MIC (Citrobacter freundii): > 512 µg/mL
